The subject of data set [1] is PI3K/AKT signaling in SF295 cells. Briefly: immunoblotting of PI3K/AKT signaling in SF295 cells. The format is cell-based. The note with it: for AKT activity: 100 μM peptide. On the procedure:
SF295 cells were treated with 200 μM Ante-Selectide-18 for 4 days with a replenishment of fresh peptide every day. The vehicle was used as the control. PI3K/AKT signaling was analyzed using immunoblotting. Three signaling pathways (GSK3b, RAC1/CDC42, and MTOR) are shown. ACTB is the loading control.
Invasion molecules RAC1/CDC42 and MMPs are shown. Images were quantified using Image J. 0 h time point is set as 1.0. […] Apoptosis molecules FOXO3, BIM, and c-CASP3 are shown. (FIG. 9C) Invasion/survival signaling downstream of p110p.
(§1) (FIG. 12A) p110βC2in. CPP: cell-penetrating peptide. Simulated p110βC2in (rainbow as represented in greyscale) is shown. (FIG. 12B) FITC-p110βC2in in LN229/GSCs was imaged using a fluorescence microscope. Upper: FITC; lower: bright view. (FIG. 12C) PI3K/AKT activity affected by 100 μM p110βC2in (+) or C2Scramble-1 (−). (FIG. 12D) MTS Cell viability assay. Cells were treated with 50 μM peptides for 4 days. Student t test was used to determine P values.
In FIG. 3 Applicant tested whether Ante-Selectide-18 affects PI3K signaling in GBM cells. […] In contrast, another PI3K/AKT downstream target MTOR was not inhibited by this peptide.
In general terms: A western blot detects proteins with antibodies after separation by electrophoresis.

Data set [2] concerns SF295 cells. Nature of the data set: MTS cell viability assay. The format is cell-based. The following applies: 50 μM peptides, 4 days. On the procedure: as §1
Cell viability was measured by the MTS assay. P values were determined using the student t test or one-way ANOVA. Error bars represent three independent experiments.
This scheme has been repeated in experiments presented hereafter. Cell viability was determined using the MTS viability assay. Percentages of cell viability were obtained by normalizing the MTS readings of treatment groups to that of DMSO group. (FIG. 34B) Scores of Excess Over Bliss (EOB) calculated using the Bliss Independence model. The drug combination is synergistic if EOB is more than 0%, additive if EOB equals to 0%, or antagonistic if EOB is less than 0%. […] (FIG. 34D) EOB scores of drug combinations in LN229 and VTC-001 cells. (FIG. 34E) Caspase 3/7 activity in VTC-103 and VTC-001 cells. The activity of cleaved caspase 3/7 (active) was determined using a luminescence assay. Shown are luminescence readings. (FIG. 34F) EOB scores of drug combinations in VTC-103 and VTC-001 cells. […] SF295 cells were subcutaneously injected into immuno-deficient mice. […] Tumor volumes are shown. […] Cell viability was determined using the MTS viability assay. Percentages of cell viability were obtained by normalizing the MTS readings of treatment groups to that of shNS group. […]
Cell viability was determined by the MTS cell viability assay (Promega) as described previously 21,24-27. […] At each hour time point, the absorbance at 490 nm was measured using a FilterMax F3 microplate reader (Molecular Devices, LLC) according to the manufacturer's instructions. Percent cell viability was obtained by dividing the absorbance of treatment groups to those of untreated and respective vehicle control groups.

The subject of data set [3] is LN229/GSCs. Briefly: TMZ sensitivity of LN229/GSCs. The note with it: Homo sapiens, LN-229. The format is cell-based.
In the next data set the target is p110b (Homo sapiens, UniProt P42338). Nature of the data set: p110b activity ELISA (cell-free kinase assay). The following applies: ELISA; for activity of p110b: 100 nM, isolated protein subunit. The format is biochemical. An excerpt:
The activity of the p110b PI3K catalytic subunit was monitored via ELISA upon increasing doses of Ante-Selectide-18.
(§2) Relative activity is the ratio of respective treated groups to their non-treated controls.
(FIG. 51A) 3D of a p110β/p85α complex determined by SWISS-MODEL and Cluspro. (FIG. 51B) Protein sequences were aligned using COBALT. C2 domains (top) are show. Red bars: same residues; Grey bars: different residues; Red lines: missing residues. […] in p110β C2 (bottom) is shown and termed as 018. Docking of p110β and p85α (FIG. 51C) or p110α and p85α (FIG. 51D) was done by SWISS-MODEL, Cluspro, and Chimera. The 018 motif is labeled in magenta. Deletion of β18 motif (FIG. 51E) changed the 3D shapes of p110β/p85 (FIG. 51C). (FIG. 51F) p110β cell-free kinase assay. An enzyme-linked immunosorbent assay (ELISA) was used to measure levels of lipids PIP2/PIP3. (FIG. 51G) Effect of PI3K inhibitors on p110s using ELISA. p110β (FIG. 51H) or p110α (FIG. 51I) was docked with Selectide-18-bound p85α using Cluspro/Chimera.
(§3) Applicant also included a control scramble peptide containing the antennapedia sequence followed by the amino acid sequence of Ante-Selectide-18 randomly scrambled. […] Applicant reports that this drug is not effective at inhibiting the kinase activity of p110b or other PI3K subunits at 100 nM, showing the promise of the Ante-Selectide-18 peptide as a potent selective p110b inhibitor at a low dose.
(ELISA stands for enzyme-linked immunosorbent assay.)

The target in another data set is p110c (Homo sapiens, UniProt P42336). Nature of the data set: PI3K subunit activity ELISA. The format is biochemical. The note with it: 100 nM. The method, then:
as §2, §3

In the next data set the target is p110δ (Homo sapiens, UniProt O00329). Nature of the data set: PI3K subunit activity ELISA. The format is biochemical. The following applies: 100 nM. On the procedure: as §2, §3
Chain of p110δ (O00329 whole entry): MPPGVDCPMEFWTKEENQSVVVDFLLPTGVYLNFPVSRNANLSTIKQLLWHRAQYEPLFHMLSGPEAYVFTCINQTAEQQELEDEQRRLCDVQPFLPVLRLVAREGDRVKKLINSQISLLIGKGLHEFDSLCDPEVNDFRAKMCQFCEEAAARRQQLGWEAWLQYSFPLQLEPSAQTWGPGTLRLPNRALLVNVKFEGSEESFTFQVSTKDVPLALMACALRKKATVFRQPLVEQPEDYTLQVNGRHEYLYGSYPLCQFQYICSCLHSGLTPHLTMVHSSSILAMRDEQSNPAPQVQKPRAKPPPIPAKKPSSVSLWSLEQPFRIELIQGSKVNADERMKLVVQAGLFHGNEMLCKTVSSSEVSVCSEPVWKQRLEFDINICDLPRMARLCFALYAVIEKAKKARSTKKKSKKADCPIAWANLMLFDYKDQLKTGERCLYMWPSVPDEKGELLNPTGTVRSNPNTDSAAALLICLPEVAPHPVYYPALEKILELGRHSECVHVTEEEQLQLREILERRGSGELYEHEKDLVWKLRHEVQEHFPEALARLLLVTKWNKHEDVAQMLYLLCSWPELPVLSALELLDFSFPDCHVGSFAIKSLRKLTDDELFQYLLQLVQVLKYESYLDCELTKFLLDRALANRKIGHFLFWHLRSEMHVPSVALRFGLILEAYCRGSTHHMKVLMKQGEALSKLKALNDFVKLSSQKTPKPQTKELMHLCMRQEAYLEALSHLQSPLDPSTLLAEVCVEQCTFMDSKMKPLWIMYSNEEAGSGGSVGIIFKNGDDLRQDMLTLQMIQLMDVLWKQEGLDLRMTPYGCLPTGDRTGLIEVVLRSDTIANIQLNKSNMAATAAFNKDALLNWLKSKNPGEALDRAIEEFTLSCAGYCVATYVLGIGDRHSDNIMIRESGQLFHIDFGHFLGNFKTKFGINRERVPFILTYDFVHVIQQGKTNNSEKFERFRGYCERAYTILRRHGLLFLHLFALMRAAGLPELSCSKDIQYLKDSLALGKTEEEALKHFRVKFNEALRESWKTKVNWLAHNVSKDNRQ
Chain of p110δ (P27986 whole entry partner): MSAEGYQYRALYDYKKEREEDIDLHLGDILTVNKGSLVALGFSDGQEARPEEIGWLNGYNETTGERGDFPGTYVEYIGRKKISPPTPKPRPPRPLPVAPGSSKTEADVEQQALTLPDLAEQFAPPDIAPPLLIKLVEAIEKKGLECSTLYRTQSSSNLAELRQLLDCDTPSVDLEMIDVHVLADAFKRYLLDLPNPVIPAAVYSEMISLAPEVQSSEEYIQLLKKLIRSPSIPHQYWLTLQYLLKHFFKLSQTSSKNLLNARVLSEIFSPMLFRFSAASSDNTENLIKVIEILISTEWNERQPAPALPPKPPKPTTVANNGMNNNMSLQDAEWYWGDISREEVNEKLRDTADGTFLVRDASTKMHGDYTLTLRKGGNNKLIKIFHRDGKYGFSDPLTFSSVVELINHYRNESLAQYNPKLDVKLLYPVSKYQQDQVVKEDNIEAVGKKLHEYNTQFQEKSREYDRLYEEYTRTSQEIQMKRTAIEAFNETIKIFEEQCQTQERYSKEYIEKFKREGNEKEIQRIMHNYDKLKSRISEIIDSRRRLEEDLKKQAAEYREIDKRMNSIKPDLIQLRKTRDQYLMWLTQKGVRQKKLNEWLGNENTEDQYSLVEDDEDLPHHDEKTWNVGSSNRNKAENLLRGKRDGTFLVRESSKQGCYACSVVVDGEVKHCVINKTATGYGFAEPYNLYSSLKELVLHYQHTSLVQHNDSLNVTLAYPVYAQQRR
The next data set addresses p110γ (Homo sapiens, UniProt P48736). Briefly: PI3K subunit activity ELISA. The format is biochemical. The note with it: 100 nM. On the procedure: as §2, §3
A further data set deals with p110β^hyper cells. Nature of the data set: melanoma cell viability (CellTiter Blue). The format is cell-based. The note with it: 0-40 μM of inhibitors; for selective inhibition of cell viability: p110β^hyper cells versus MelST. The method, then: (§4) (FIG. 49A) Immunoblotting of p110s and signaling molecules. 3-actin (ACTB) was used as the loading control. (FIG. 49B) Summary of genetic mutations and protein levels in melanoma cells. Information regarding hot spot mutations was retrieved from e.g., DepMap. (FIG. 49C) Cells were treated with 0-40 μM of inhibitors. Cell viability was measured using CellTiter Blue. IC50s were calculated using Graphpad.
(§5) (FIG. 52A) Cells were treated with 10 μM Selectide-18-FITC for 1 h and imaged immediately or after 96h. (FIG. 52B) Selectide-18-FITC in melanoma cells were imaged at different times. FITC was quantified using Image J and FITC intensities at different times were normalized with that at 1 h. Half-life was calculated using GraphPad. (FIG. 52C) UACC-62, MelST, or MeWo cells were treated with 50 μM of Selectide-18 for 4 days with daily repeated dosing. (FIG. 52D) MelST or melanoma cells were treated with 50 μM of Selectide-18 for 6 days with daily repeated dosing. Cell viability was measured using Cell-Titer Blue. (FIG. 52E) MelST, UACC-62, or MeWo cells were treated with Scramble or Selectide-18 at different doses. IC50s were calculated using GraphPad. (FIG. 52F) Nod scid mice bearing UACC-62 subcutaneous tumors were treated with Selectide-18 (3 mg/kg) intratumoral injection/daily) for 16 days. Tumors were measured using a caliper and tumor volumes were calculated as (length×width2))/2. Student t test or ANOVA was used to determine P values. ns: not significant; **: P<0.01; ***P<0.001.
(In general: Alamar Blue is a resazurin reagent that responds to reducing activity.)

A further data set relates to tumor growth in mice. Briefly: GBM tumor growth in mice. The format is in vivo.
In another data set the test system is PI3K in SK-MEL-94 cells. Nature of the data set: PI3K activity in melanoma cells (immunoblotting). The format is cell-based. The following applies: 10 μM AZD6482.
For a further data set, the system named is MDA-MB-435S cells. Briefly: melanoma cell viability (CellTiter Blue). The following applies: 0-40 μM, CellTiter Blue. The format is cell-based. On the procedure:
as §4, §5

For another data set, the system named is PI3K in SK-MEL-147 cells. Nature of the data set: PI3K activity in melanoma cells (immunoblotting). The format is cell-based. The following applies: 10 μM AZD6482.
Data set [4] deals with LN229/GSCs. Nature of the data set: wound-healing (migration) assay. The format is cell-based. The following applies: 8 μM, 24 hours. On the procedure:
(§6) (FIG. 8A) Wound-healing assay. Cells were plated confluently and then treated with PI3K isoform-selective inhibitors at 8 μM for 24 hours. Cells were imaged at 0- and 24-hour time point. Images of 24-hour time point are shown. Scale bar: […]. (FIG. 8B-8D) Quantification of migration distance. Images from three different areas were analyzed using Image J. Migration distances were obtained by subtracting 24-hour measurements with those of 0-hour.

Data set [5] relates to SF295 cells. Nature of the data set: wound-healing (migration) assay. The format is cell-based. The following applies: 8 μM, 24 hours. On the procedure:
as §6

The next data set has as its system AKT. Nature of the data set: AKT activation in GBM cells. The format is cell-based.
Setting [6] is: 200 μM, 4 days, fresh peptide every day.

pIC50: −log10 of the molar value. Where no end group is shown, it is not given here.

Chain of p110b (P42338 whole entry): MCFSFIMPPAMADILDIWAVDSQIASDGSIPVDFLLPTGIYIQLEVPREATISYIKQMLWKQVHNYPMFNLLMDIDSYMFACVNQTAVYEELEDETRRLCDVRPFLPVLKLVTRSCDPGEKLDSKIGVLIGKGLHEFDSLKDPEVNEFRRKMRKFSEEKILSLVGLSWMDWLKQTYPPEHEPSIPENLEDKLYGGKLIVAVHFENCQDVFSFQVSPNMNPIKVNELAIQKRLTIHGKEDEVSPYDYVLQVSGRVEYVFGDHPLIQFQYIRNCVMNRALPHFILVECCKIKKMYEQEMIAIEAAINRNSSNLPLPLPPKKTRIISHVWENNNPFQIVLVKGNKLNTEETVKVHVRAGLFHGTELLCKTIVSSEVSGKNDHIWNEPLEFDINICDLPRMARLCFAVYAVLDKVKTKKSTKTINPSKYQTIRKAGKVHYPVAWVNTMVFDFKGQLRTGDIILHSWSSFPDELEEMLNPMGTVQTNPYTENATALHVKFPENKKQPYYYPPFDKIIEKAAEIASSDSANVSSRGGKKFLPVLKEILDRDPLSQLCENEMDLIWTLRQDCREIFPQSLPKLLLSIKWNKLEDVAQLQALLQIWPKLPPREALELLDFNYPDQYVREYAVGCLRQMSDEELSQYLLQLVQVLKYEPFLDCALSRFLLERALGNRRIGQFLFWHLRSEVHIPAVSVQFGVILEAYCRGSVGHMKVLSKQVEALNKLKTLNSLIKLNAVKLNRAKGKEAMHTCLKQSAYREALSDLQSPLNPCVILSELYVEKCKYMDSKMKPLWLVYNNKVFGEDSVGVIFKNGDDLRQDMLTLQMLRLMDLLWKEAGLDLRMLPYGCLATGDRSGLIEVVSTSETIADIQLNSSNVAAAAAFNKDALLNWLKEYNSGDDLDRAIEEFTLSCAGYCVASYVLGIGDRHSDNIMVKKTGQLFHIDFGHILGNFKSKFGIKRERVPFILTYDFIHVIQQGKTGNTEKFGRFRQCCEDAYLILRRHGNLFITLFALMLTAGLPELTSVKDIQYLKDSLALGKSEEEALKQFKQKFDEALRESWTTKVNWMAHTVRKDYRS
Chain of p110γ (P48736 whole entry): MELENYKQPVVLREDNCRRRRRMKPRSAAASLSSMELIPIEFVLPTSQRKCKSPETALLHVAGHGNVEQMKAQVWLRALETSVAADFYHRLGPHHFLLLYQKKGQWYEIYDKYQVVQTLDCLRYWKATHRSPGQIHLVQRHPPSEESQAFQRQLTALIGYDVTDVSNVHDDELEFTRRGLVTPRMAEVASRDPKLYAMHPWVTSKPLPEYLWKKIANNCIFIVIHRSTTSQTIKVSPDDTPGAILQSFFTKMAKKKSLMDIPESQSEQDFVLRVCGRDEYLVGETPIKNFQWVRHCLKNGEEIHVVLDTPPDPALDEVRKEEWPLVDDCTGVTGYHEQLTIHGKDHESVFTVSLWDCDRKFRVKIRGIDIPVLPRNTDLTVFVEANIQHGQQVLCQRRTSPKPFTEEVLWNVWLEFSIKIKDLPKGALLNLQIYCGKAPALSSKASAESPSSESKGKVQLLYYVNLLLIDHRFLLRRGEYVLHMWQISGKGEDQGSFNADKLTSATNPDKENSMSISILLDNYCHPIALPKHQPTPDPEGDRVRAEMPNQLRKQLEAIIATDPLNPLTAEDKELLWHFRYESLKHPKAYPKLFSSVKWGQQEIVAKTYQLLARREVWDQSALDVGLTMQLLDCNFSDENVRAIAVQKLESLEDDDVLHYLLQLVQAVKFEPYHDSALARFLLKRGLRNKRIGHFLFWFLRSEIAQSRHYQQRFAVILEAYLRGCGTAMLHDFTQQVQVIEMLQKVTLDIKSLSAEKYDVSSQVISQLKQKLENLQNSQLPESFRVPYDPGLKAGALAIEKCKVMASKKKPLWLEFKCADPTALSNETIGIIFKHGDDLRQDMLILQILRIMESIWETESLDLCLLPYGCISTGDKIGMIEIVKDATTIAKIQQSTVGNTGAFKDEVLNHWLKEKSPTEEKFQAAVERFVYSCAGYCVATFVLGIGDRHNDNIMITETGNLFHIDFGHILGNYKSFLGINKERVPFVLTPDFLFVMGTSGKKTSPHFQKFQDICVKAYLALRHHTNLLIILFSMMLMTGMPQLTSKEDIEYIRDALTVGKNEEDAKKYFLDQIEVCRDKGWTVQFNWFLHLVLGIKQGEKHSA
Chain of p110c (P42336 whole entry): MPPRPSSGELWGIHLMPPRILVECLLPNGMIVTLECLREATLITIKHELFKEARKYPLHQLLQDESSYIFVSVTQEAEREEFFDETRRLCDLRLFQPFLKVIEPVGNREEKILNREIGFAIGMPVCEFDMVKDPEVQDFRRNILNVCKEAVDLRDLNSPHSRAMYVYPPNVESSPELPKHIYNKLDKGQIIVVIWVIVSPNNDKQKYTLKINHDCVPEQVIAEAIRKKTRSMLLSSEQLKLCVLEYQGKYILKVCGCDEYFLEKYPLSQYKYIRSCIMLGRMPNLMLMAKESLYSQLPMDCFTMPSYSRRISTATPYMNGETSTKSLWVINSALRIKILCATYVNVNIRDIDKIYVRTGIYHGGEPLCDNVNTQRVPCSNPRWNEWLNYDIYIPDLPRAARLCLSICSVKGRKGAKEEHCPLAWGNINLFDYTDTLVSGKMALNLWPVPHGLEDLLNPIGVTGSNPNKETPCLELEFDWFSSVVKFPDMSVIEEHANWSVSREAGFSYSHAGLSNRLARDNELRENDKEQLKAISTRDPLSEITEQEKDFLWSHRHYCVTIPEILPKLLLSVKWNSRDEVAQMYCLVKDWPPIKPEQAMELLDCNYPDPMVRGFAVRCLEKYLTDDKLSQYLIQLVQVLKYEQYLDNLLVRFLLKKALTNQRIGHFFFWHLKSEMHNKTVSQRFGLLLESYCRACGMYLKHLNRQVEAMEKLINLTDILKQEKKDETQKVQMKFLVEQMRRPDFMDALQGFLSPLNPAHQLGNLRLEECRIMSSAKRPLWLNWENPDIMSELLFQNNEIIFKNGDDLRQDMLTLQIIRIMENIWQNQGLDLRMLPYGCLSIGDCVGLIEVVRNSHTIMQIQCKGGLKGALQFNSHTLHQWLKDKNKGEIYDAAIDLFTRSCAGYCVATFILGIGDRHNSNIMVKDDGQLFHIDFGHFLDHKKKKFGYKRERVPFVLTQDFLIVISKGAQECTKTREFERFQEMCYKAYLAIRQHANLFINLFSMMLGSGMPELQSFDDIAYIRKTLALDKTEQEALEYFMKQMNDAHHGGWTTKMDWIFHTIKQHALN

For the molecule “RRRRRRRRTKKSTKTINPSKYQTIRK (p110bC2in - Selectide-18 with a cell penetrating peptide) [p110βC2in]”, the AKT activity entry in [1] is “blocked AKT activity”. Moreover, the cell viability result with SF295 cells [2] is given as “suppressed cell viability”.

The pIC50 is the IC50 on a negative log10 scale, so that one unit is a factor of ten. In the data set on LN229/GSCs [3], `Cn1nnc2c(C(N)=O)ncn2c1=O` [TMZ, temozolomide] showed a pIC50 of 4.00.

For the molecule “RQPKIWFPNRRKPWKKTKKSTKTINPSKYQTIRK [Ante-Selectide-18]”, in data set [1] (setting [6]), the “MTOR (PI3K/AKT downstream target)” value is on record as “not inhibited”; the “active forms of GSK3b and RAC1/CDC42” value is on record as “remarkable decrease”; the “levels of phosphorylated form of AKT” value is recorded as “substantially reduced”. The “activity of p110b” value on p110b is “inhibits the activity”. Further, the “activity of p110b” value at p110b (listed as ante-Selectide-18) was “Only Inhibits p110b”. Further, the pIC50 at p110b (increasing doses) was 6.98. On p110c, the “activity of PI3K subunit p110c” value is recorded as “does not affect”. Besides, at p110δ, the “activity of PI3K subunit p110δ” value is listed as “does not affect”. On p110γ, the “activity of PI3K subunit p110γ” value is listed as “does not affect”.

In the case of `CC(C)(C)NS(=O)(=O)c1cncc(-c2cc(F)c3nc(N)nn3c2)c1` [CZC24832], in the data set on p110β^hyper cells, the “selective inhibition of cell viability” value is recorded as “did not show a selective inhibition of cell viability”.

`Cc1c(Cn2c(C)nc3c(C(=O)O)cc(N4CCOCC4)cc32)cccc1C(F)(F)F` [GSK2636771]: the “tumor growth in mice” value in the data set on tumor growth in mice is reported as “slow down tumor growth”.

For the molecule `Cc1cc([C@@H](C)Nc2ccccc2C(=O)O)c2nc(N3CCOCC3)cc(=O)n2c1` [AZD6482], the PI3K activity entry in the data set on PI3K in SK-MEL-94 cells was “inactivated PI3K”; in the data set with PI3K in SK-MEL-147 cells it was “not”. The cytotoxicity result with p110β^hyper cells (CellTiter Blue) is listed as “cytotoxic”. Besides, the “sensitivity to AZD6482” value with MDA-MB-435S cells was “not sensitive and not”.

For the molecule “IYKTSKTRSQKTKIKPNT (Scrambled control peptide) [scrambled peptide]”, the “activity of p110b” value with p110b is “didn't inactivate p110β”.

`Nc1cc(C(F)(F)F)c(-c2cc(N3CCOCC3)nc(N3CCOCC3)n2)cn1` [BKM120]: the cell migration result in the data set on LN229/GSCs [4] and in the data set with SF295 cells [5] was “inhibited the migration” throughout.

Turning to `Cc1ccc([N+](=O)[O-])cc1S(=O)(=O)N(C)/N=C/c1cnc2ccc(Br)cn12` [PIK-75], in the data set with AKT, the “AKT activation / selectivity” value is “non-selectively inhibits AKT and ERK”.

As to `Nc1nc2cc(-c3ccc4ncc(C(=O)N5CCOCC5)n4c3)ccc2o1` [MLN1117], the “selective inhibition of cell viability” value in the data set with p110β^hyper cells is on record as “did not show a selective inhibition of cell viability”.

Consider “scramble peptide: control C2Scramble peptide, e.g. TYKTSKRISKQTIKKPNT fused with RRRRRRRR (IYKTSKTRSQKTKIKPNT)”, for which the AKT activity result in data set [1] was “not”. For the same molecule, the cell viability entry in the data set on SF295 cells [2] is “not”.

The values above are taken from patent US20240075093A1, “COMPOSITIONS AND METHODS OF TREATING A PI3K MEDIATED DISEASE” (VIRGINIA TECH INTELLECTUAL PROPERTIES, INC., priority 2020, published 2024).
